The source of these data is patent US9512086B2, “Compound for promoting apoptosis of cancer cells and a pharmaceutical composition containing the same and uses thereof” (National Chiao Tung University, priority 2014, dated 2016).

As usually defined, the remaining activity is the signal under treatment as a percentage of the control signal. In general, IC50 refers to the point on the concentration scale where inhibition reaches its midpoint. High values mean a need for much substance, low ones inhibition by little substance.

In assay [1] the target is T1, LIMK1 (LIM motif-containing protein kinase-1) (Homo sapiens, UniProt P53667).
T1 construct: purchased Merck Millipore (KinaseProfiler service)
The assay is described as follows: KinaseProfiler assay, LIMK1. Format: biochemical. As to conditions: LIMK1; 10 μM; read-out: KAR value (kinase activity remaining). The source says:
The kinase activity remaining (KAR) value is […] related to kinase activity. […]

Assay [2] concerns survivin. The assay is described as follows: RT-PCR of survivin gene expression in A549 cells. It counts as cell-based, human. As to conditions: 0 to 40 μM, 24 hours. As to the method: After the treatment, total cellular RNA was purified by ZR RNA MiniPrep™ (Zymo Research, Irvine, Calif.) according to the manufacturer's protocol. RNA concentrations were determined by spectrophotometry. cDNAs were synthesized by SuperScript™ III reverse transcriptase with oligo (dT)12-18 primer (Invitrogen). Each reverse transcript was amplified with GAPDH as an internal control. Reverse transcription polymerase chain reaction (RT-PCR) was performed by a DNA thermal cycler (Mastercycler gradient, Hamburg, Germany). […] The conditions of RT-PCR are stated as followed: the initial denaturation was performed at 94° C. for 2 minutes, followed by 30 cycles at 94° C. for 30 seconds, 56° C. for 30 seconds, and 72° C. for 40 seconds; and 72° C. for 5 minutes. The PCR products were visualized on 1.2% agarose gels with ethidium bromide staining under UV transillumination, and photograph was taken by a camera DH27-S3 (Medclub, Taoyuan, Taiwan).

Assay [3] addresses T2, EGFR protein kinase (Homo sapiens, UniProt P00533).
T2 construct: purchased Promega
The assay is described as follows: ADP-Glo Kinase Assay, EGFR protein kinase activity. Format: biochemical. On the technique in general: ADP-Glo turns the ADP formed in a reaction into a luminescent signal.

Assay [4] deals with H1299 human non-small cell lung cell line. The assay is described as follows: MTT cell viability, H1299 cells. Format: cell-based. As to conditions: 24 hours. As to the method: (§1) After drug treatment, the cells were washed with PBS and replaced with fresh complete RPMI-1640 medium for 2 days. Thereafter, the medium was replaced and the cells were incubated with 0.5 mg/mL of MTT reagent (Sigma Chemical Co., St. Louis, Mo.) in complete RPMI-1640 medium for 4 hours. The intensity of formazan was measured at 565 nm using a plate reader (VERSAmax, Molecular Dynamics, Sunnyvale, Calif.). The relative percentage of cell viability was calculated by dividing the absorbance of treated cells by that of the control in each experiment.

The subject of assay [5] is A549 cells. The assay is described as follows: Survivin overexpression (pCT-GFP-sur8 transfection) and MTT cell viability. As to conditions: A549 cells transfected with pCT-GFP-sur8 vs pCT-GFP2. It counts as cell-based, human. As to the method:
To further determine the effect that Analogue-18 inhibits surviving so as to induce apoptosis. The pCT-GFP2 and pCT-GFP-sur8 were employed for transfection using Lipofectamine™ 2000 (Invitrogen) according to the manufacturer's instructions. The pCT-GFP-sur8 overexpressed surviving, and the pCT-GFP2 only overexpressed green fluorescent protein and was used as a control. A549 cells were plated in 60-mm Petri dish at a density of 2×10^6 per well for 16 to 20 hours, then were transfected with 20 μg of pCT-GFP-sur8 or pCT-GFP2 in serum-free medium for 8 hours at 37° C. in a CO2 incubator. Then, the equal amount medium with 20% fetal bovine serum (FBS) was added without removing the transfection mixture. And proceed the incubation for additional 24 hours. After transfection, the cells were subjected to cytotoxicity assay according to Example 2 and Western blot analysis according to Example 4.

For assay [6], the system named is CL3 human lung cancer cell line. The assay is described as follows: MTT cell viability, CL3 cells. Format: cell-based. Conditions: 24 hours. The procedure:
as §1

T2 sequence (P00533 25-1210): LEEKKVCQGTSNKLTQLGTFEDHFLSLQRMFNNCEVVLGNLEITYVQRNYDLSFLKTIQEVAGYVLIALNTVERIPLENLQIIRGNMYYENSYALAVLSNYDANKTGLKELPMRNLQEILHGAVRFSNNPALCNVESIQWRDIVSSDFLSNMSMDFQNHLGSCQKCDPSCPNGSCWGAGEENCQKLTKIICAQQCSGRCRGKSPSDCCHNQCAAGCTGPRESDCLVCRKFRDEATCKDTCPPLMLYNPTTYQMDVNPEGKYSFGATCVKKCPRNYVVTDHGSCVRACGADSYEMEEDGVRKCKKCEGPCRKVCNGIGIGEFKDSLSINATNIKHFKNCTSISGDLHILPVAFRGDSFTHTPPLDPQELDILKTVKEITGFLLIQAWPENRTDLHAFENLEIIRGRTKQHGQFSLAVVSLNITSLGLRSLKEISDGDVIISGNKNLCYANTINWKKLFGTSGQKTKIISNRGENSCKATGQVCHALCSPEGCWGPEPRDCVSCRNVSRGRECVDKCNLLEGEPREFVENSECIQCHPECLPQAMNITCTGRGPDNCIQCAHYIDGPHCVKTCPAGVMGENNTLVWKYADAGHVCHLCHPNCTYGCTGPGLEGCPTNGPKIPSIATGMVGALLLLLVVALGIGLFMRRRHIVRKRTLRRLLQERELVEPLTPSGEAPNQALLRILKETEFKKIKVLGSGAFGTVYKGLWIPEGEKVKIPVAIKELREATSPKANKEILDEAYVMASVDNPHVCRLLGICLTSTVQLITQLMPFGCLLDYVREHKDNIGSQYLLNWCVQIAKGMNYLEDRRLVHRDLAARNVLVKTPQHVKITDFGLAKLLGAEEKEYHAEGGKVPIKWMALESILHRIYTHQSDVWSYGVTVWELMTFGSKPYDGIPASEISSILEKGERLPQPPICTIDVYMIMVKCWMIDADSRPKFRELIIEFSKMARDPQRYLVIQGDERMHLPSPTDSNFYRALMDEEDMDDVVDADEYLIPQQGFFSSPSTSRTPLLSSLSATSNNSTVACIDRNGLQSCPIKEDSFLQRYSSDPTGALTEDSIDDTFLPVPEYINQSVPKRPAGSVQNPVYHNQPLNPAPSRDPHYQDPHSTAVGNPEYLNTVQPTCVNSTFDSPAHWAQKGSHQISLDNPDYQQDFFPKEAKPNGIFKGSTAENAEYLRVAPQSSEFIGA
T1 sequence (P53667 whole entry): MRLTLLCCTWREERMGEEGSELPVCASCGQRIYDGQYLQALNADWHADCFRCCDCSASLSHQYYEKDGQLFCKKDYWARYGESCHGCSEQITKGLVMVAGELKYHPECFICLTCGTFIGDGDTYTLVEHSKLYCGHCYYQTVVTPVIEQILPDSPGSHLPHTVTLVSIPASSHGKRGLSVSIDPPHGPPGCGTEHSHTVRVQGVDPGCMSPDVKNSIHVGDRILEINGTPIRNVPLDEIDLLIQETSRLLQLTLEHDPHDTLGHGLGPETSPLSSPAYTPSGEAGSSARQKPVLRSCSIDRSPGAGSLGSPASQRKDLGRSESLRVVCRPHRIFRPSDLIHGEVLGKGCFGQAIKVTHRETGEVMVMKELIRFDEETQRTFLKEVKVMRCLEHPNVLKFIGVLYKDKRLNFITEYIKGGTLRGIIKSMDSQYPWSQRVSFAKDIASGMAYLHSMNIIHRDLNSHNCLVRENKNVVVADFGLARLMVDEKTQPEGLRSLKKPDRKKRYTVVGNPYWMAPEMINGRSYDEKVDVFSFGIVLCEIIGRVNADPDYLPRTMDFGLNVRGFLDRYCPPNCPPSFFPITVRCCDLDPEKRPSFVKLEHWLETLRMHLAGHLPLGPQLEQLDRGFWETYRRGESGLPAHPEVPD

With `CCCCCCCCCCCCOC(=O)CCC(=O)N1CCN(CCCOc2cc3c(Nc4ccc(F)c(Cl)c4)ncnc3cc2OC)CC1` [Analogue-18, dodecyl 4-(4-(3-(4-(3-chloro-4-fluorophenylamino)-7-methoxyquinazolin-6-yloxy)propyl)piperazin-1-yl)-4-oxobutanoate], the remaining activity at 10 µM in assay [1] was 82%. Further, the survivin gene expression result in assay [2] was “significantly inhibited in a concentration-dependent manner”. Also, the figures for the half-inhibitory concentration (IC50) in assay [3] (by the IVIS system) and in assay [3] (by the Luminometer) were around 130 nM and around 126 nM, respectively. The reducing cell viability result in assay [4] (H1299, 0 to 40 μM, compared with Iressa) is “more effective on reducing cell viability than Iressa”; in assay [6] (CL3, 0 to 40 μM, compared with Iressa), “more effective on reducing cell viability than Iressa”. Moreover, the toxicity effects result in assay [4] (H1299, 40 μM) is reported as “more than 99%”; in assay [6] (CL3, 40 μM), “more than 99%”. In addition, the “resistance of survivin-overexpressing cells to induced apoptosis” value in assay [5] was “the transfection of pCT-GFP-sur8 was more resistant to the Analogue-18-induced apoptosis than pCT-GFP2”.
